Results reported in ChEMBL document CHEMBL1135754, “Arylsulfonamidothiazoles as a new class of potential antidiabetic drugs. Discovery of potent and selective inhibitors of the 11beta-hydroxysteroid dehydrogenase type 1” (J Med Chem, 2002).
Activity calls are given as the source filed them. The rule behind the calls is not given here.

Columns and labels:
[1] = molecular target: T1, 11-beta-hydroxysteroid dehydrogenase 1 (Mus musculus, UniProt P50172); experiment: In vitro inhibitory activity against mouse 11 beta hydroxysteroid dehydrogenase type 1 using scintillation proximity assay (SPA)
[2] = molecular target: 11-beta-hydroxysteroid dehydrogenase type 2 (Homo sapiens, UniProt P80365); experiment: Ability to convert [3H]cortisol to the tritium labeled cortisone in the presence of human 11 beta hydroxysteroid dehydrogenase type 2
[3] = molecular target: 11-beta-hydroxysteroid dehydrogenase type 2 (Mus musculus) (UniProt P51661); experiment: Inhibitory activity against mouse 11 beta hydroxysteroid dehydrogenase type 2 at a concentration of 0.2 mM; NI means no inhibition
[4] = molecular target: T1, 11-beta-hydroxysteroid dehydrogenase 1; experiment: In vitro inhibitory activity against mouse 11 beta hydroxysteroid dehydrogenase type 1 using scintillation proximity assay (SPA).

11-beta-hydroxysteroid dehydrogenase type 2, sequence (P80365 whole entry, looked up): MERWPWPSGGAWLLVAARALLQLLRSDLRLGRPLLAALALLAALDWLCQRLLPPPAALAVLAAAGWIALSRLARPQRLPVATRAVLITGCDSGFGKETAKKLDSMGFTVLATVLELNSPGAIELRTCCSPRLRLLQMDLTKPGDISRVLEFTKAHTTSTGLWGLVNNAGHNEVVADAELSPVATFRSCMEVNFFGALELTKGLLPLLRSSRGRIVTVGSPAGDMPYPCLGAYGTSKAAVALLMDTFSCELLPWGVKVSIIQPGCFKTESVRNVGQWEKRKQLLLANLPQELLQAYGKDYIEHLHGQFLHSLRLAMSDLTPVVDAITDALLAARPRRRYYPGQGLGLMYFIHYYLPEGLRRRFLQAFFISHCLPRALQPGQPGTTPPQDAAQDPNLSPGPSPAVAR
11-beta-hydroxysteroid dehydrogenase type 2 (Mus musculus), sequence (P51661 whole entry, looked up): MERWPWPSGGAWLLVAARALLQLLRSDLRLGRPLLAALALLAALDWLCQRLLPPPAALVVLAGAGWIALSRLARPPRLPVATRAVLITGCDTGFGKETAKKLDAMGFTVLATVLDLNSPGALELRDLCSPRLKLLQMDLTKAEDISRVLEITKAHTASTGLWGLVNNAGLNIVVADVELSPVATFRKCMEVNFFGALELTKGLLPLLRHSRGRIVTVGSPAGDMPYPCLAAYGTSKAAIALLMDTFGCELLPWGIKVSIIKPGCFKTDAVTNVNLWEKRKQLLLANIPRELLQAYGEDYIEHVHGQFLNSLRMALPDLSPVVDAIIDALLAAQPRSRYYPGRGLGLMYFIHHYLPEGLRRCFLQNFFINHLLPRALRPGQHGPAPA

| Compound | IC50 [1] | IC50 [2] | NI [3] | IC50 [4] |
| --- | --- | --- | --- | --- |
| Cc1c(Cl)cccc1S(=O)(=O)Nc1nc(CC(=O)N2CCN(C)CC2)cs1 | […] | > 10000 nM | inactive |  |
| CCN(CC)C(=O)Cc1csc(NS(=O)(=O)c2cccc(Cl)c2C)n1 |  | > 10000 nM |  | […] |
